In patent US8163724B2, “Glucocorticosteroids, processes for their preparation, pharmaceutical compositions containing them and their use in therapy” (AstraZeneca AB, priority 2007, dated 2012):

These compounds were tested against T1, recombinant human GR (Homo sapiens, UniProt P04150) (assay: Human Glucocorticoid Receptor (GR) Assay (fluorescence polarization, Panvera/Invitrogen kit)). Details: fluorescence polarization; GS Red tracer; 2 hours at room temperature; 100% control 10 μM Dexamethasone; read-out: Inhibition of GR binding, IC50.
T1 construct: purchased Panvera/Invitrogen P2812 (kit P2893)
T1 sequence (P04150 1-777): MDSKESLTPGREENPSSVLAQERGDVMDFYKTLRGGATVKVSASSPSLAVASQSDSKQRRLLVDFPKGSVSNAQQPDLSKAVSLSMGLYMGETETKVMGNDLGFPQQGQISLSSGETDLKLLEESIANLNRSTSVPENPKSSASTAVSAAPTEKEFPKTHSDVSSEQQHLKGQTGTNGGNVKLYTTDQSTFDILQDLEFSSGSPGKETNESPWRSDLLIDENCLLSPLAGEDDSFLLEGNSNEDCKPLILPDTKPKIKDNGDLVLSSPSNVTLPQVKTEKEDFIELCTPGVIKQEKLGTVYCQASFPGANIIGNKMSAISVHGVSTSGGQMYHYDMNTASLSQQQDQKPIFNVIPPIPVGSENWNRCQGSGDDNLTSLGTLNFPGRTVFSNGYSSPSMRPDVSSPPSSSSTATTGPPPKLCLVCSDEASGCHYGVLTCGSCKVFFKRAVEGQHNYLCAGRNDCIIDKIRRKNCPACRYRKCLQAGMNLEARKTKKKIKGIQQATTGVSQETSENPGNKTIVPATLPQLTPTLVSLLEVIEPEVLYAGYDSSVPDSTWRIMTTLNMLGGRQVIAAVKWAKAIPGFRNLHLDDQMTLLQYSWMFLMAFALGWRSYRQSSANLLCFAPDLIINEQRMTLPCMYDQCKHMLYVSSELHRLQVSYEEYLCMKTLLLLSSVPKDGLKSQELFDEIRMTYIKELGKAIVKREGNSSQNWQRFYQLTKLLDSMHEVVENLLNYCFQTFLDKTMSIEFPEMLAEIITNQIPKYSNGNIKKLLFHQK
Format: binding
Summary of the method: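 Fluorescence polarization competition with recombinant GR and GS Red fluorescent ligand plus stabilizing peptide and DTT in potassium phosphate/sodium molybdate/EDTA buffer with DMSO. Incubated 2 hours at room temperature in the dark; 0% control DMSO, 100% control 10 μM dexamethasone.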

`COCSC(=O)[C@@]1(OC(=O)c2ccco2)CC[C@H]2[C@@H]3CCC4=Cc5c(cnn5-c5ccc(F)cc5)C[C@]4(C)[C@H]3[C@@H](O)C[C@@]21C` [Example 93, (1R,3aS,3bS,10aR,10bS,11S,12aS)-7-(4-Fluorophenyl)-11-hydroxy-1-{[(methoxymethyl)sulfanyl]carbonyl}-10a,12a-dimethyl-1,2,3,3a,3b,4,5,7,10,10a,10b,11,12,12a-tetradecahydrocyclopenta[5,6]naphtho[1,2-f]indazol-1-yl furan-2-carboxylate] and `CC(=O)OCSC(=O)[C@@]1(OC(=O)c2ccco2)CC[C@H]2[C@@H]3CCC4=Cc5c(cnn5-c5ccc(F)cc5)C[C@]4(C)[C@H]3[C@@H](O)C[C@@]21C` [Example 94, (1R,3aS,3bS,10aR,10bS,11S,12aS)-1-({[(Acetyloxy)methyl]sulfanyl}carbonyl)-7-(4-fluorophenyl)-11-hydroxy-10a,12a-dimethyl-1,2,3,3a,3b,4,5,7,10,10a,10b,11,12,12a-tetradecahydrocyclopenta[5,6]naphtho[1,2-f]indazol-1-yl furan-2-carboxylate] are within 1.5-fold of each other in IC50: 5.6 nM for the first, 5.9 nM for the second.

First: CCC(=O)O[C@]1(C(=O)SCCOC(C)=O)CC[C@H]2[C@@H]3CCC4=Cc5c(cnn5-c5ccc(F)cc5)C[C@]4(C)[C@H]3[C@@H](O)C[C@@]21C [Example 95, (1R,3aS,3bS,10aR,10bS,11S,12aS)-1-({[2-(Acetyloxy)ethyl]sulfanyl}carbonyl)-7-(4-fluorophenyl)-11-hydroxy-10a,12a-dimethyl-1,2,3,3a,3b,4,5,7,10,10a,10b,11,12,12a-tetradecahydrocyclopenta[5,6]naphtho[1,2-f]indazol-1-yl propanoate]
Second: CCC(=O)O[C@]1(C(=O)SCOC)CC[C@H]2[C@@H]3CCC4=Cc5c(cnn5-c5ccc(F)nc5)C[C@]4(C)[C@H]3[C@@H](O)C[C@@]21C [Example 98, (1R,3aS,3bS,10aR,10bS,11S,12aS)-7-(6-Fluoropyridin-3-yl)-11-hydroxy-1-{[(methoxymethyl)sulfanyl]carbonyl}-10a,12a-dimethyl-1,2,3,3a,3b,4,5,7,10,10a,10b,11,12,12a-tetradecahydrocyclopenta[5,6]naphtho[1,2-f]indazol-1-yl propanoate]
The IC50 of the first is 1.5-fold higher: 4.7 nM for the first, 3.1 nM for the second. The second is the more potent here.

`CCC(=O)O[C@]1(C(=O)SCC#N)CC[C@H]2[C@@H]3CCC4=Cc5c(cnn5-c5ccc(F)nc5)C[C@]4(C)[C@H]3[C@@H](O)C[C@@]21C` [Example 97, (1R,3aS,3bS,10aR,10bS,11S,12aS)-1-{[(Cyanomethyl)sulfanyl]carbonyl}-7-(6-fluoropyridin-3-yl)-11-hydroxy-10a,12a-dimethyl-1,2,3,3a,3b,4,5,7,10,10a,10b,11,12,12a-tetradecahydrocyclopenta[5,6]naphtho[1,2-f]indazol-1-yl propanoate] and `CCC(=O)O[C@]1(C(=O)SCF)CC[C@H]2[C@@H]3CCC4=Cc5c(cnn5-c5ccc(F)nc5)C[C@]4(C)[C@H]3[C@@H](O)C[C@@]21C` [Example 99, (1R,3aS,3bS,10aR,10bS,11S,12aS)-1-{[(Fluoromethyl)sulfanyl]carbonyl}-7-(6-fluoropyridin-3-yl)-11-hydroxy-10a,12a-dimethyl-1,2,3,3a,3b,4,5,7,10,10a,10b,11,12,12a-tetradecahydrocyclopenta[5,6]naphtho[1,2-f]indazol-1-yl propanoate] are the same in IC50: 2.1 nM for the first, 2.1 nM for the second.

Going from `C[C@]12Cc3cnn(-c4cccc(C(=O)N5CCOCC5)c4)c3C=C1CC[C@@H]1[C@@H]2[C@@H](O)C[C@@]2(C)[C@H]1CC[C@]2(OC(=O)c1ccco1)C(=O)SCF` [Example 100, (1R,3aS,3bS,10aR,10bS,11S,12aS)-1-{[(Fluoromethyl)thio]carbonyl}-11-hydroxy-10a,12a-dimethyl-7-[3-(morpholin-4-ylcarbonyl)phenyl]-1,2,3,3a,3b,4,5,7,10,10a,10b,11,12,12a-tetradecahydrocyclopenta[5,6]naphtho[1,2-f]indazol-1-yl furan-2-carboxylate] to `COC(=O)c1cccc(-n2ncc3c2C=C2CC[C@@H]4[C@H]([C@@H](O)C[C@@]5(C)[C@H]4CC[C@]5(OC(=O)c4ccco4)C(=O)SCF)[C@@]2(C)C3)c1` [Example 108, (1R,3aS,3bS,10aR,10bS,11S,12aS)-1-{[(Fluoromethyl)sulfanyl]carbonyl}-11-hydroxy-7-[3-(methoxycarbonyl)phenyl]-10a,12a-dimethyl-1,2,3,3a,3b,4,5,7,10,10a,10b,11,12,12a-tetradecahydrocyclopenta[5,6]naphtho[1,2-f]indazol-1-yl furan-2-carboxylate], the IC50 rises from 2.7 nM to 6.6 nM (2.4-fold). The first is the more potent here.

Going from `C[C@]12Cc3cnn(-c4ccc(F)cc4F)c3C=C1CC[C@@H]1[C@@H]2[C@@H](O)C[C@@]2(C)[C@H]1CC[C@]2(OC(=O)c1ccco1)C(=O)SCC#N` [Example 101, (1R,3aS,3bS,10aR,10bS,11S,12aS)-1-{[(Cyanomethyl)thio]carbonyl}-7-(2,4-difluorophenyl)-11-hydroxy-10a,12a-dimethyl-1,2,3,3a,3b,4,5,7,10,10a,10b,11,12,12a-tetradecahydrocyclopenta[5,6]naphtho[1,2-f]indazol-1-yl furan-2-carboxylate] to `C[C@]12Cc3cnn(-c4ccc(F)c(F)c4)c3C=C1CC[C@@H]1[C@@H]2[C@@H](O)C[C@@]2(C)[C@H]1CC[C@]2(OC(=O)c1ccco1)C(=O)SCC#N` [Example 103, (1R,3aS,3bS,10aR,10bS,11S,12aS)-1-{[(Cyanomethyl)thio]carbonyl}-7-(3,4-difluorophenyl)-11-hydroxy-10a,12a-dimethyl-1,2,3,3a,3b,4,5,7,10,10a,10b,11,12,12a-tetradecahydrocyclopenta[5,6]naphtho[1,2-f]indazol-1-yl furan-2-carboxylate], the IC50 falls from 29 nM to 6.4 nM (4.5-fold).

Compared with `C[C@]12Cc3cnn(-c4cc(F)cc(F)c4)c3C=C1CC[C@@H]1[C@@H]2[C@@H](O)C[C@@]2(C)[C@H]1CC[C@]2(OC(=O)c1ccco1)C(=O)SCC#N` [Example 102, (1R,3aS,3bS,10aR,10bS,11S,12aS)-1-{[(Cyanomethyl)thio]carbonyl}-7-(3,5-difluorophenyl)-11-hydroxy-10a,12a-dimethyl-1,2,3,3a,3b,4,5,7,10,10a,10b,11,12,12a-tetradecahydrocyclopenta[5,6]naphtho[1,2-f]indazol-1-yl furan-2-carboxylate], `CN(C)C(=O)SC(=O)[C@@]1(OC(=O)c2ccco2)CC[C@H]2[C@@H]3CCC4=Cc5c(cnn5-c5cc(F)cc(F)c5)C[C@]4(C)[C@H]3[C@@H](O)C[C@@]21C` [Example 107, (1R,3aS,3bS,10aR,10bS,11S,12aS)-7-(3,5-Difluorophenyl)-1-{[(dimethylcarbamoyl)sulfanyl]carbonyl}-11-hydroxy-10a,12a-dimethyl-1,2,3,3a,3b,4,5,7,10,10a,10b,11,12,12a-tetradecahydrocyclopenta[5,6]naphtho[1,2-f]indazol-1-yl furan-2-carboxylate] is 7.2-fold higher in IC50: 8.2 nM for the first, 59 nM for the second. The first is the more potent here.

Compared with `CCOC(=O)[C@@]1(O)CC[C@H]2[C@@H]3CCC4=Cc5c(cnn5-c5ccc(F)cc5)C[C@]4(C)[C@H]3[C@@H](O)C[C@@]21C` [Example 104, Ethyl (1R,3aS,3bS,10aR,10bS,11S,12aS)-7-(4-fluorophenyl)-1,11-dihydroxy-10a,12a-dimethyl-1,2,3,3a,3b,4,5,7,10,10a,10b,11,12,12a-tetradecahydrocyclopenta[5,6]naphtho[1,2-f]indazole-1-carboxylate], `C[C@]12Cc3cnn(-c4ccc(S(C)(=O)=O)cc4)c3C=C1CC[C@@H]1[C@@H]2[C@@H](O)C[C@@]2(C)[C@H]1CC[C@]2(OC(=O)c1ccco1)C(=O)SCC#N` [Example 106, (1R,3aS,3bS,10aR,10bS,11S,12aS)-1-{[(Cyanomethyl)sulfanyl]carbonyl}-11-hydroxy-10a,12a-dimethyl-7-[4-(methylsulfonyl)phenyl]-1,2,3,3a,3b,4,5,7,10,10a,10b,11,12,12a-tetradecahydrocyclopenta[5,6]naphtho[1,2-f]indazol-1-yl furan-2-carboxylate] is 38-fold higher in IC50: 4.2 nM for the first, 160 nM for the second. The first is the more potent here.

Work on `C[C@]12Cc3cnn(-c4ccccn4)c3C=C1CC[C@@H]1[C@@H]2[C@@H](O)C[C@@]2(C)[C@H]1CC[C@]2(OC(=O)c1ccco1)C(=O)OCC#N` [Example 105, Cyanomethyl(1R,3aS,3bS,10aR,10bS,11S,12aS)-1-[(furan-2-ylcarbonyl)oxy]-11-hydroxy-10a,12a-dimethyl-7-pyridin-2-yl-1,2,3,3a,3b,4,5,7,10,10a,10b,11,12,12a-tetradecahydrocyclopenta[5,6]naphtho[1,2-f]indazole-1-carboxylate] yielded an IC50 of 6.1 nM.
